# Measurements taken from patent US10131652B2, “Pyrimidinyloxy benzene derivatives as herbicides” (E. I. DU PONT DE NEMOURS AND COMPANY, priority 2014, dated 2018).
# Read-outs that look alike come from different tables or passages of the source.
# Columns and labels:
# Assay in all cases: Test F pre-/postemergence plant response
# Type in all cases: in vivo
# [1] = system: field bindweed (Convolvulus arvensis); conditions: Convolvulus arvensis, pre-emergence, scale 0 to 100, read-out: Plant response rating, Field Bindweed
# Excerpt: (§1) Seeds of plant species selected from corn (Zea mays), soybean (Glycine max), velvetleaf (Abutilon theophrasti), lambsquarters (Chenopodium album), wild poinsettia (Euphorbia heterophylla), palmer pigweed (Amaranthus palmeri), waterhemp (common waterhemp, Amaranthus rudis), surinam grass (Brachiaria decumbens), large (Lg) crabgrass (Digitaria sanguinalis), Brazilian crabgrass (Digitaria horizontalis), fall panicum (Panicum dichotomiflorum), giant foxtail (Setaria faberii), green foxtail (Setaria viridis), goosegrass (Eleusine indica), johnsongrass (Sorghum halepense), ragweed (common ragweed, Ambrosia elatior), barnyardgrass (Echinochloa crus-galli), sandbur (southern sandbur, Cenchrus echinatus), arrowleaf sida (Sida rhombifolia), Italian ryegrass (Lolium multiflorum), dayflower (Virginia (VA) dayflower, Commelina virginica), field bindweed (Convolvulus arvensis), cocklebur (common cocklebur, Xanthium strumarium), momingglory (Ipomoea coccinea), nightshade (eastern black nightshade, Solanum ptycanthum), kochia (Kochia scoparia), yellow nutsedge (Cyperus esculentus), and hairy beggarticks (Bidens pilosa), were planted into a silt loam soil and treated preemergence with test chemicals formulated in a non-phytotoxic solvent mixture which included a surfactant.
# (§2) At the same time, plants from these crop and weed species and also waterhemp_RES1, (ALS & Triazine resistant common waterhemp, Amaranthus rudis), and waterhemp_RES2, (ALS & HPPD resistant common waterhemp, Amaranthus rudis) were treated with postemergence applications of test chemicals formulated in the same manner. Plants ranged in height from 2 to 18 cm for postemergence treatments (1- to 4-leaf stage).
# (§3) Treated plants and controls were maintained in a greenhouse for 14 to 21 days, after which time all species were compared to controls and visually evaluated. Plant response ratings, summarized in Table F, are based on a scale of 0 to 100 where 0 is no effect and 100 is complete control. A dash (-) response means no test result.
# [2] = system: wild poinsettia (Euphorbia heterophylla); conditions: Euphorbia heterophylla, scale 0 to 100, read-out: Plant response rating, Poinsettia, Wild
# Excerpt: as §1, §2, §3
# [3] = system: velvetleaf (Abutilon theophrasti); conditions: Abutilon theophrasti, pre-emergence, scale 0 to 100, read-out: Plant response rating, Velvetleaf
# Excerpt: as §1, §2, §3
# [4] = system: johnsongrass (Sorghum halepense); conditions: Sorghum halepense, pre-emergence, scale 0 to 100, read-out: Plant response rating, Johnsongrass
# Excerpt: as §1, §2, §3
# [5] = system: yellow nutsedge (Cyperus esculentus); conditions: Cyperus, pre-emergence, scale 0 to 100, read-out: Plant response rating, Nutsedge, Yellow
# Excerpt: as §1, §2, §3
# [6] = system: goosegrass (Eleusine indica); conditions: Eleusine indica, pre-emergence, scale 0 to 100, read-out: Plant response rating, Goosegrass
# Excerpt: as §1, §2, §3
# [7] = system: ragweed (common ragweed, Ambrosia elatior); conditions: Ambrosia artemisiifolia, pre-emergence, scale 0 to 100, read-out: Plant response rating, Ragweed
# Excerpt: as §1, §2, §3
# [8] = system: nightshade (eastern black nightshade, Solanum ptycanthum); conditions: Solanum, pre-emergence, scale 0 to 100, read-out: Plant response rating, Nightshade
# Excerpt: as §1, §2, §3
# [9] = system: hairy beggarticks (Bidens pilosa); conditions: Bidens pilosa, scale 0 to 100, read-out: Plant response rating, Beggarticks
# Excerpt: as §1, §2, §3
# [10] = system: fall panicum (Panicum dichotomiflorum); conditions: Panicum dichotomiflorum, scale 0 to 100, read-out: Plant response rating, Panicum, Fall
# Excerpt: as §1, §2, §3
# [11] = post-emergence, 8 g ai/ha Postemergence
# [12] = post-emergence, 16 g ai/ha Postemergence
# [13] = post-emergence, 31 g ai/ha Postemergence
# [14] = post-emergence, 62 g ai/ha Postemergence
# [15] = post-emergence, 125 g ai/ha Postemergence
# [16] = pre-emergence, 8 g ai/ha Preemergence
# [17] = pre-emergence, 16 g ai/ha Preemergence
# [18] = pre-emergence, 31 g ai/ha Preemergence
# [19] = pre-emergence, 125 g ai/ha Preemergence
structure (smiles),measurement,setting,value
"FC(F)c1cc(-c2ccccc2Oc2ncc(Cl)cn2)on1 [Compound 53, 5-chloro-2-[2-[3-(difluoromethyl)-5-isoxazolyl]phenoxy]pyrimidine]",pest or weed control at 31 g/ha,[1]; 31 g ai/ha Preemergence,0%
same,pest or weed control at 62 g/ha,[1]; 62 g ai/ha Preemergence,0%
same,pest or weed control at 125 g/ha,[1]; 125 g ai/ha Preemergence,0%
same,pest or weed control at 8 g/ha,[2]; [11],50%
same,pest or weed control at 16 g/ha,[2]; [12],50%
same,pest or weed control at 31 g/ha,[2]; [13],60%
same,pest or weed control at 62 g/ha,[2]; [14],70%
same,pest or weed control at 125 g/ha,[2]; [15],70%
same,pest or weed control at 8 g/ha,[2]; [16],0%
same,pest or weed control at 16 g/ha,[2]; [17],0%
same,pest or weed control at 31 g/ha,[2]; [18],0%
same,pest or weed control at 125 g/ha,[2]; [19],0%
same,pest or weed control at 62 g/ha,"[2]; pre-emergence, Preemergence",0%
same,pest or weed control at 8 g/ha,[3]; 8 g ai/ha Preemergence,0%
same,pest or weed control at 16 g/ha,[3]; 16 g ai/ha Preemergence,65%
same,pest or weed control at 31 g/ha,[3]; 31 g ai/ha Preemergence,90%
same,pest or weed control at 125 g/ha,[3]; 125 g ai/ha Preemergence,100%
same,pest or weed control at 62 g/ha,[3]; Preemergence,100%
same,pest or weed control at 8 g/ha,[4]; 8 g ai/ha Preemergence,0%
same,pest or weed control at 16 g/ha,[4]; 16 g ai/ha Preemergence,0%
same,pest or weed control at 31 g/ha,[4]; 31 g ai/ha Preemergence,0%
same,pest or weed control at 125 g/ha,[4]; 125 g ai/ha Preemergence,5%
same,pest or weed control at 62 g/ha,[4]; Preemergence,0%
same,pest or weed control at 8 g/ha,[5]; 8 g ai/ha Preemergence,0%
same,pest or weed control at 16 g/ha,[5]; 16 g ai/ha Preemergence,0%
same,pest or weed control at 31 g/ha,[5]; 31 g ai/ha Preemergence,0%
same,pest or weed control at 125 g/ha,[5]; 125 g ai/ha Preemergence,20%
same,pest or weed control at 62 g/ha,[5]; Preemergence,0%
same,pest or weed control at 8 g/ha,[6]; 8 g ai/ha Preemergence,0%
same,pest or weed control at 16 g/ha,[6]; 16 g ai/ha Preemergence,0%
same,pest or weed control at 31 g/ha,[6]; 31 g ai/ha Preemergence,0%
same,pest or weed control at 125 g/ha,[6]; 125 g ai/ha Preemergence,60%
same,pest or weed control at 62 g/ha,[6]; Preemergence,10%
same,pest or weed control at 8 g/ha,[7]; 8 g ai/ha Preemergence,0%
same,pest or weed control at 16 g/ha,[7]; 16 g ai/ha Preemergence,0%
same,pest or weed control at 31 g/ha,[7]; 31 g ai/ha Preemergence,0%
same,pest or weed control at 125 g/ha,[7]; 125 g ai/ha Preemergence,40%
same,pest or weed control at 62 g/ha,[7]; Preemergence,30%
same,pest or weed control at 16 g/ha,[8]; 16 g ai/ha Preemergence,35%
same,pest or weed control at 31 g/ha,[8]; 31 g ai/ha Preemergence,90%
same,pest or weed control at 125 g/ha,[8]; 125 g ai/ha Preemergence,98%
same,pest or weed control at 62 g/ha,[8]; Preemergence,98%
same,pest or weed control at 8 g/ha,[9]; [11],15%
same,pest or weed control at 16 g/ha,[9]; [12],30%
same,pest or weed control at 31 g/ha,[9]; [13],40%
same,pest or weed control at 62 g/ha,[9]; [14],50%
same,pest or weed control at 125 g/ha,[9]; [15],60%
same,pest or weed control at 8 g/ha,[9]; [16],0%
same,pest or weed control at 16 g/ha,[9]; [17],0%
same,pest or weed control at 31 g/ha,[9]; [18],0%
same,pest or weed control at 62 g/ha,"[9]; pre-emergence, 62 g ai/ha Preemergence",30%
same,pest or weed control at 125 g/ha,[9]; [19],20%
same,pest or weed control at 8 g/ha,[10]; [11],0%
same,pest or weed control at 16 g/ha,[10]; [12],5%
same,pest or weed control at 31 g/ha,[10]; [13],20%
same,pest or weed control at 62 g/ha,[10]; [14],15%
same,pest or weed control at 125 g/ha,[10]; [15],60%
same,pest or weed control at 8 g/ha,[10]; [16],0%
same,pest or weed control at 16 g/ha,[10]; [17],0%
same,pest or weed control at 31 g/ha,[10]; [18],0%
same,pest or weed control at 125 g/ha,[10]; [19],98%
same,pest or weed control at 62 g/ha,"[10]; pre-emergence, Preemergence",95%
